Target: T1, native TRPV1 (Rattus norvegicus, UniProt O35433)
T1 construct: RTX-induced membrane currents on native TRPV1 in embryonic DRG neurons grown in culture; endogenous in cells; host or cells: primary rat E18 DRG neurons
Assay: Single-channel currents in cell-attached patches from DRG neurons
Format: cell-based
Set-up: Open time τ4 / Closed time τ1 / Closed time τ2 / Closed time τ3 / Closed time τ4: unit not given here
Conditions: for single-channel conductance / single-channel current amplitude / Po (single-channel open probability): cell-attached; for single-channel conductance / single-channel current amplitude: RTX, capsaicin 100 nM; for Closed time τ1 / Closed time τ2 / Closed time τ3 / Open time τ1 / Open time τ2 / Open time τ3 / Po (single-channel open probability): RTX 0.1 nM; for Closed time τ1 / Closed time τ2 / Closed time τ3 / Open time τ1 / Open time τ2 / Open time τ3 / Po (single-channel open probability) / Closed time τ4 / Open time τ4: CAP 100 nM; for slope conductance, inward limb / negative potentials: between 0 and −100 mV
Description: For single-channel recording in cell-attached patches from DRG neurons, the bath solution contained (mM): potassium gluconate 140, KCl 2.5, MgCl2 1, Hepes 5 and EGTA 1.5; pH adjusted to 7.35 with NaOH. The patch pipettes were made from glass capillaries (Drummond, Microcaps), coated with Sylgard (Dow Corning, Midland, Mich., USA). For cell-attached patches, the patch pipettes were filled with a solution that contained (mM): sodium gluconate 140, NaCl 10, MgCl2 1, Hepes 5 and EGTA 1.5; pH adjusted to 7.35 with NaOH. While recording from cell-attached patches, in order to avoid differences in the driving force because of the differences in the membrane potential, the external NaCl was replaced by an equal amount of KCl in order to nullify the membrane potential. For outside-out patches, the pipette solution contained (mM): sodium gluconate 90, NaCl 10, BAPTA 10, Hepes 10, K2ATP2 and GTP 0.25; pH adjusted to 7.35 with NaOH. The bath solution contained (mM): sodium gluconate 100, KCl 2.5, MgCl2 1, Hepes 5 and EGTA 1.5; pH adjusted to 7.35 with NaOH. All the experiments were performed at room temperature (21-23° C.). Agar-bridge electrodes were used to avoid changes in junction potential. The currents were recorded using a WPC 100 (Warner Instruments) or Axopatch 2B (Axon Instruments, Union City, Calif., USA) patch-clamp amplifier. Data were filtered at 10 kHz (Axopatch 2B), digitized (VR-10B, Instrutech Corp.), and stored on videotapes. For the analysis of amplitude and open probability (Po), the data were filtered at 2.5 kHz (−3 db frequency with an 8-pole low-pass Bessel filter, Warner Instruments) and digitized at 5 kHz. For dwell-time analysis, the data were filtered at 10 kHz and digitized at 50 kHz.
Single-channel analysis. Single-channel current amplitude and Po were estimated from all-point current amplitude histograms (Channel 2 software kindly provided by Michael Smith, Australian National University, Can berra, Australia) and fitted to Gaussian densities (Origin, OriginLab Corp., Northampton, Mass., USA). For current-voltage relationships, the amplitudes were determined by fitting a Gaussian curve to an all-point histogram. Po was determined using unedited segments of data, which were typically 1-5 min long. For multiple channel patches, the mean Po was measured as nPo, where n is the number of channels in the patch. Chord conductance was measured at +60 or −60 mV. […]
Single-channel currents were idealized using a modified Viterbi algorithm (QUB software, www.qub.buffalo.edu). Dwell-time distributions were fitted with mixtures of exponential densities using a method of maximum likelihood. Additional exponential components were incorporated only if the maximum log likelihood increased more than 2 log likelihood units. (Chung et al. 1990; Qin et al. 1996; Premkumar et al. 1997.) A dead time (Td) of 50 μs was imposed retrospectively, in that, events shorter than 50 μs were considered to be a part of the adjoining sojourns.
Single-channel conductance. To further evaluate the properties of TRPV1 activation by RTX, we recorded single-channel currents from cell-attached and excised patches from DRG neurons and oocytes heterologously expressing TRPV1. All recordings were carried out in the absence of extracellular calcium to avoid tachyphylaxis and desensitization of channel activity. (Docherty et al. 1996; Caterina et al. 1997; Koplas et al. 1997.) Single-channel current activity in cell-attached patches from DRG neurons were recorded at −60 and +60 mV, as shown in FIG. 3.

T1 sequence (O35433 whole entry): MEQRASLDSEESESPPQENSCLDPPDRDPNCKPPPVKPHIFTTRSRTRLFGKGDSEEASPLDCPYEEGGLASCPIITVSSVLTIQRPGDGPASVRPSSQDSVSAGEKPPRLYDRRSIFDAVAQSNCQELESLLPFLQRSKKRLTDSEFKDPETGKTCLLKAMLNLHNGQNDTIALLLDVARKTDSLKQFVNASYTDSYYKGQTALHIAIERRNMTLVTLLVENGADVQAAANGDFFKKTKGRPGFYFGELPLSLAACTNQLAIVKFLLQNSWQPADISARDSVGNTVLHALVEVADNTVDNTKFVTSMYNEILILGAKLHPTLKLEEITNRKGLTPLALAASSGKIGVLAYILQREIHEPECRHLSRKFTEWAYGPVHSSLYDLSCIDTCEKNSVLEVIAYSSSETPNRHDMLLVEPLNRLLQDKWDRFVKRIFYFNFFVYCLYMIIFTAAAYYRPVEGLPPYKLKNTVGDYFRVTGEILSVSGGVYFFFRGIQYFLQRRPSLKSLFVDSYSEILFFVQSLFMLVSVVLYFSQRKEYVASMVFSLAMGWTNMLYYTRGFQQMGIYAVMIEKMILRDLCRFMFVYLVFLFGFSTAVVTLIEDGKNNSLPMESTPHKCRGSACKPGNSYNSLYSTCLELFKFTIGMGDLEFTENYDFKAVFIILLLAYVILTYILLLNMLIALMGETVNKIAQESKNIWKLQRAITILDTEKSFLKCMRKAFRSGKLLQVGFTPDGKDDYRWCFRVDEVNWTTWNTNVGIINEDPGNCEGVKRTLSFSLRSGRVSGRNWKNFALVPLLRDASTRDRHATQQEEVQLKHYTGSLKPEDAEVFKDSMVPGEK

## C=C(C)[C@]12C[C@@H](C)[C@@]34O[C@](Cc5ccccc5)(O[C@@H]1[C@@H]3C=C(COC(=O)Cc1ccc(O)c(OC)c1)C[C@]1(O)C(=O)C(C)=C[C@@H]41)O2 [RTX, resiniferatoxin]
+60 mV
  mean open time: 7.9 ms
  single-channel conductance: 100±2.2 pS
  single-channel current amplitude: 6.02±0.14 pA
RTX 0.1 to 20 nM
  change of Po with increasing concentration: did not change
Vm +60 mV
  Closed time τ1: 0.1±0.008
  Closed time τ2: 0.46±0.02
  Closed time τ3: 8.7±3.9
  Open time τ1: 1.6 ± 1.2 ms
  Open time τ2: 6.58 ± 0.56 ms
  Open time τ3: 12 ± 1 ms
  Po (single-channel open probability): 0.98±0.02
Vm −60 mV
  Closed time τ1: 0.05±0.007
  Closed time τ2: 0.12±0.005
  Closed time τ3: 1.1±0.26
  Open time τ1: 0.46 ± 0.1 ms
  Open time τ2: 5.57 ± 2.4 ms
  Open time τ3: 10.2 ± 1.8 ms
  Po (single-channel open probability): 0.94±0.02
Between 0 and +100 mV
  slope conductance, outward limb / positive potentials: 126 pS
  slope conductance, inward limb / negative potentials: ~30 pS
cell-attached as well as outside-out patches, negative and positive potentials
  Po of RTX-induced currents: ~0.9
Recorded −100 to +100 mV
  reversal potential of single-channel currents: −2.9 mV
single-channel recording
  concentration that could maximally activate the receptor: 0.1 to 0.2 nM
−60 mV
  mean open time: 7.5 ms
  single-channel conductance: 38.3±3.5 pS
  single-channel current amplitude: 2.3±0.21 pA

## COc1cc(CNC(=O)CCCC/C=C/C(C)C)ccc1O [capsaicin]
+60 mV
  mean open time: 3.8 ms
  single-channel conductance: 95±0.1 pS
  single-channel current amplitude: 5.67±0.06 pA
Vm +60 mV
  Closed time τ4: 70.84±47
  Open time τ4: 14.7±2.6
  Closed time τ1: 0.06±0.02
  Closed time τ2: 0.67±0.39
  Closed time τ3: 1.66±0.39
  Open time τ1: 0.14 ± 0.04 ms
  Open time τ2: 0.7 ± 0.13 ms
  Open time τ3: 3.83 ± 0.62 ms
  Po (single-channel open probability): 0.53±0.04
Vm +60 mV, listed as CAP
  Closed time τ4: 70.84 ± 47
  Open time τ4: 14.7 ± 2.6
  Closed time τ1: 0.06 ± 0.02
  Closed time τ2: 0.67 ± 0.39
  Closed time τ3: 1.66 ± 0.39
  Open time τ1: 0.14 ± 0.04 ms
  Open time τ2: 0.7 ± 0.13 ms
  Open time τ3: 3.83 ± 0.62 ms
  Po (single-channel open probability): 0.53 ± 0.04
Vm −60 mV
  Closed time τ4: 30.8±12.4
  Closed time τ1: 0.13±0.02
  Closed time τ2: 0.79±0.12
  Closed time τ3: 3.47±0.59
  Open time τ1: 0.11 ± 0.01 ms
  Open time τ2: 0.76 ± 0.18 ms
  Open time τ3: 2.61 ± 0.84 ms
  Po (single-channel open probability): 0.1±0.04
Vm −60 mV, listed as CAP
  Closed time τ4: 30.8 ± 12.4
  Closed time τ1: 0.13 ± 0.02
  Closed time τ2: 0.79 ± 0.12
  Closed time τ3: 3.47 ± 0.59
  Open time τ1: 0.11 ± 0.01 ms
  Open time τ2: 0.76 ± 0.18 ms
  Open time τ3: 2.61 ± 0.84 ms
  Po (single-channel open probability): 0.1 ± 0.04
  slope conductance, inward limb / negative potentials: 41 pS
capsaicin-induced currents
  conductance level at which currents predominantly dwelled: ~95 pS
−60 mV
  mean open time: 1.27 ms
  single-channel conductance: 40±1.95 pS
  single-channel current amplitude: 2.4±0.12 pA

Reference: patent US20090209633A1, “Treatment of Pain With Resiniferatoxin and Related Analogs” (priority 2006, published 2009)
